According to PubChem BioAssay (NCI):
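Five concentrations, 48 hours, 96-well plates. GI50: concentration for 50% inhibition of growth. TGI is the concentration that stops growth completely.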

Experiments:
Test in all cases: NCI tumour cell line growth inhibition, 48 h
A549 NSCLC = tested on: A549 NSCLC
OVCAR-4 ovarian = tested on: OVCAR-4 ovarian
BT-549 breast = tested on: BT-549 breast
MDA-MB-435 = tested on: MDA-MB-435
OVCAR-8 ovarian = tested on: OVCAR-8 ovarian
PC-3 prostate = tested on: PC-3 prostate
K-562 leukemia = tested on: K-562 leukemia
OVCAR-5 ovarian = tested on: OVCAR-5 ovarian
SN12C renal = tested on: SN12C renal
UACC-257 melanoma = tested on: UACC-257 melanoma
LOX IMVI melanoma = tested on: LOX IMVI melanoma
IGROV1 ovarian = tested on: IGROV1 ovarian
MOLT-4 leukemia = tested on: MOLT-4 leukemia
MCF7 breast = tested on: MCF7 breast
ACHN renal = tested on: ACHN renal
NCI-H522 lung = tested on: NCI-H522 lung
SK-OV-3 ovarian = tested on: SK-OV-3 ovarian
HCC-2998 colon = tested on: HCC-2998 colon
SW-620 colon = tested on: SW-620 colon
SK-MEL-28 melanoma = tested on: SK-MEL-28 melanoma
SNB-19 CNS = tested on: SNB-19 CNS
SR leukemia = tested on: SR leukemia
HCT-15 colon = tested on: HCT-15 colon
SK-MEL-5 melanoma = tested on: SK-MEL-5 melanoma
CAKI-1 renal = tested on: CAKI-1 renal
A498 renal = tested on: A498 renal
HOP-92 NSCLC = tested on: HOP-92 NSCLC
NCI/ADR-RES ovarian = tested on: NCI/ADR-RES ovarian
CCRF-CEM leukemia = tested on: CCRF-CEM leukemia
RXF 393 renal = tested on: RXF 393 renal
OVCAR-3 ovarian = tested on: OVCAR-3 ovarian
NCI-H226 lung = tested on: NCI-H226 lung
HT29 colon = tested on: HT29 colon
HCT-116 colon = tested on: HCT-116 colon
KM12 colon = tested on: KM12 colon
HL-60(TB) leukemia = tested on: HL-60(TB) leukemia
UACC-62 melanoma = tested on: UACC-62 melanoma
T-47D breast = tested on: T-47D breast
SF-295 CNS = tested on: SF-295 CNS
NCI-H23 lung = tested on: NCI-H23 lung
TK-10 renal = tested on: TK-10 renal
UO-31 renal = tested on: UO-31 renal
SK-MEL-2 melanoma = tested on: SK-MEL-2 melanoma
EKVX NSCLC = tested on: EKVX NSCLC
RPMI-8226 leukemia = tested on: RPMI-8226 leukemia
SF-539 CNS = tested on: SF-539 CNS
M14 melanoma = tested on: M14 melanoma
U251 CNS = tested on: U251 CNS
SF-268 CNS = tested on: SF-268 CNS
DU-145 prostate = tested on: DU-145 prostate
MDA-MB-231 breast = tested on: MDA-MB-231 breast
HOP-62 NSCLC = tested on: HOP-62 NSCLC
HS 578T breast = tested on: HS 578T breast
786-0 renal = tested on: 786-0 renal
NCI-H460 lung = tested on: NCI-H460 lung
COLO 205 colon = tested on: COLO 205 colon
SNB-75 CNS = tested on: SNB-75 CNS

SMILES: Nc1ncnc2[nH]ncc12
- GI50 (A549 NSCLC): 1720 nM
- TGI (A549 NSCLC): > 66800 nM
- GI50 (OVCAR-4 ovarian): 277 nM
- TGI (OVCAR-4 ovarian): 37900 nM
- GI50 (BT-549 breast): 1980 nM
- TGI (BT-549 breast): 74900 nM
- GI50 (MDA-MB-435): 580 nM
- TGI (MDA-MB-435): > 56000 nM
- GI50 (OVCAR-8 ovarian): 285 nM
- TGI (OVCAR-8 ovarian): 16600 nM
- GI50 (PC-3 prostate): 526 nM
- TGI (PC-3 prostate): > 55700 nM
- GI50 (K-562 leukemia): 279 nM
- TGI (K-562 leukemia): > 100000 nM
- GI50 (OVCAR-5 ovarian): 765 nM
- TGI (OVCAR-5 ovarian): > 100000 nM
- GI50 (SN12C renal): 1300 nM
- TGI (SN12C renal): > 100000 nM
- GI50 (UACC-257 melanoma): 983 nM
- TGI (UACC-257 melanoma): 14200 nM
- GI50 (LOX IMVI melanoma): 340 nM
- TGI (LOX IMVI melanoma): > 41000 nM
- GI50 (IGROV1 ovarian): 744 nM
- TGI (IGROV1 ovarian): 4620 nM
- GI50 (MOLT-4 leukemia): 2640 nM
- TGI (MOLT-4 leukemia): > 100000 nM
- GI50 (MCF7 breast): 435 nM
- TGI (MCF7 breast): > 100000 nM
- GI50 (ACHN renal): 535 nM
- TGI (ACHN renal): > 100000 nM
- GI50 (NCI-H522 lung): 649 nM
- TGI (NCI-H522 lung): 9480 nM
- GI50 (SK-OV-3 ovarian): 315 nM
- TGI (SK-OV-3 ovarian): 4710 nM
- GI50 (HCC-2998 colon): 251 nM
- TGI (HCC-2998 colon): 4850 nM
- GI50 (SW-620 colon): 646 nM
- TGI (SW-620 colon): > 100000 nM
- GI50 (SK-MEL-28 melanoma): 2770 nM
- TGI (SK-MEL-28 melanoma): 99000 nM
- GI50 (SNB-19 CNS): 13800 nM
- TGI (SNB-19 CNS): > 100000 nM
- GI50 (SR leukemia): 445 nM
- TGI (SR leukemia): > 100000 nM
- GI50 (HCT-15 colon): 281 nM
- TGI (HCT-15 colon): > 100000 nM
- GI50 (SK-MEL-5 melanoma): 4180 nM
- TGI (SK-MEL-5 melanoma): 24500 nM
- GI50 (CAKI-1 renal): 110 nM
- TGI (CAKI-1 renal): 1440 nM
- GI50 (A498 renal): 853 nM
- TGI (A498 renal): 20400 nM
- GI50 (HOP-92 NSCLC): 431 nM
- TGI (HOP-92 NSCLC): 3610 nM
- GI50 (NCI/ADR-RES ovarian): 388 nM
- TGI (NCI/ADR-RES ovarian): 12200 nM
- GI50 (CCRF-CEM leukemia): 3570 nM
- TGI (CCRF-CEM leukemia): > 100000 nM
- GI50 (RXF 393 renal): 860 nM
- TGI (RXF 393 renal): > 28600 nM
- GI50 (OVCAR-3 ovarian): 863 nM
- TGI (OVCAR-3 ovarian): 4380 nM
- GI50 (NCI-H226 lung): 4040 nM
- TGI (NCI-H226 lung): > 100000 nM
- GI50 (HT29 colon): 1830 nM
- TGI (HT29 colon): > 94500 nM
- GI50 (HCT-116 colon): 511 nM
- TGI (HCT-116 colon): 10500 nM
- GI50 (KM12 colon): 1260 nM
- TGI (KM12 colon): 18300 nM
- GI50 (HL-60(TB) leukemia): 361 nM
- TGI (HL-60(TB) leukemia): 2560 nM
- GI50 (UACC-62 melanoma): 512 nM
- TGI (UACC-62 melanoma): 3480 nM
- GI50 (T-47D breast): 265 nM
- TGI (T-47D breast): 4520 nM
- GI50 (SF-295 CNS): 401 nM
- TGI (SF-295 CNS): 6370 nM
- GI50 (NCI-H23 lung): 1590 nM
- TGI (NCI-H23 lung): 38100 nM
- GI50 (TK-10 renal): 589 nM
- TGI (TK-10 renal): > 47600 nM
- GI50 (UO-31 renal): 232 nM
- TGI (UO-31 renal): 916 nM
- GI50 (SK-MEL-2 melanoma): 369 nM
- TGI (SK-MEL-2 melanoma): 2910 nM
- GI50 (EKVX NSCLC): 2600 nM
- TGI (EKVX NSCLC): > 79900 nM
- GI50 (RPMI-8226 leukemia): 378 nM
- TGI (RPMI-8226 leukemia): 14300 nM
- GI50 (SF-539 CNS): 4170 nM
- TGI (SF-539 CNS): > 100000 nM
- GI50 (M14 melanoma): 442 nM
- TGI (M14 melanoma): 12400 nM
- GI50 (U251 CNS): 4830 nM
- TGI (U251 CNS): > 100000 nM
- GI50 (SF-268 CNS): 4190 nM
- TGI (SF-268 CNS): > 100000 nM
- GI50 (DU-145 prostate): 358 nM
- TGI (DU-145 prostate): 18000 nM
- GI50 (MDA-MB-231 breast): 577 nM
- TGI (MDA-MB-231 breast): > 100000 nM
- GI50 (HOP-62 NSCLC): 2230 nM
- TGI (HOP-62 NSCLC): > 100000 nM
- GI50 (HS 578T breast): 7320 nM
- TGI (HS 578T breast): > 100000 nM
- GI50 (786-0 renal): 623 nM
- TGI (786-0 renal): 21200 nM
- GI50 (NCI-H460 lung): 2100 nM
- TGI (NCI-H460 lung): > 100000 nM
- GI50 (COLO 205 colon): 1550 nM
- TGI (COLO 205 colon): > 67300 nM
- GI50 (SNB-75 CNS): 2100 nM
- TGI (SNB-75 CNS): > 100000 nM
